Legend:
[1] = target: T1, Phosphatidylinositol 4,5-bisphosphate 3-kinase catalytic subunit delta isoform (Homo sapiens, UniProt O00329); experiment: Inhibition of N-terminal myristoylated P110delta (unknown origin)-mediated AKT phosphorylation at Ser473 expressed in rat Rat1 cells by ELISA; format: cell-based
T1 sequence (O00329 whole entry): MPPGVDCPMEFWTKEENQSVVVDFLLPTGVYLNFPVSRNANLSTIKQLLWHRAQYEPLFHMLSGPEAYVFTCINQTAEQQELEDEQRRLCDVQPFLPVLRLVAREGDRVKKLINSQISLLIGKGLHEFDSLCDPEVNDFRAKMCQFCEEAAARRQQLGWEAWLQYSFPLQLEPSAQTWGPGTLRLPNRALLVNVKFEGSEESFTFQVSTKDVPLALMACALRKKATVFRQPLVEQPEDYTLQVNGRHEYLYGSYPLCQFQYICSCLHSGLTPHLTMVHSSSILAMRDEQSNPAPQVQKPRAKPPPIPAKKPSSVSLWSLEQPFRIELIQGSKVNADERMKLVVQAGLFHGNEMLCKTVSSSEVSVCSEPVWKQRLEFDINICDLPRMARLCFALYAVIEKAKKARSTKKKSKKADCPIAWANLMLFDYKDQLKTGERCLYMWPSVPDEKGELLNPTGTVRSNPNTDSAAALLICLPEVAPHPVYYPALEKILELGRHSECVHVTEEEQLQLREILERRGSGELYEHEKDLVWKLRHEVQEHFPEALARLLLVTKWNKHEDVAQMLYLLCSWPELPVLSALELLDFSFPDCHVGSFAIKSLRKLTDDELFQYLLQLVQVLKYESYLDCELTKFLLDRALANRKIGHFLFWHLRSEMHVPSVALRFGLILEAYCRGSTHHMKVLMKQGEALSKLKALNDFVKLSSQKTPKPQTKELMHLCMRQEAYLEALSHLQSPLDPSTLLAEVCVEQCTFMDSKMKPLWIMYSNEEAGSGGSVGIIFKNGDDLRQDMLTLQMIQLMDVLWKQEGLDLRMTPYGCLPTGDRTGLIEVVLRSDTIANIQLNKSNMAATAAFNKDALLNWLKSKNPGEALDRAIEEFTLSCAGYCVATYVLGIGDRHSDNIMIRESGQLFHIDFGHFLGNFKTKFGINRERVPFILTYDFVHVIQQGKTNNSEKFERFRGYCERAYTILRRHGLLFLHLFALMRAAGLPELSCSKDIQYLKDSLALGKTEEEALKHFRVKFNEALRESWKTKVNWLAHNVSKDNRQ

[2] = target: T2, Phosphatidylinositol 4,5-bisphosphate 3-kinase catalytic subunit beta isoform (Homo sapiens, UniProt P42338); experiment: Inhibition of N-terminal myristoylated P110beta (unknown origin)-mediated AKT phosphorylation at Ser473 expressed in rat Rat1 cells by ELISA; format: cell-based
T2 sequence (P42338 whole entry, canonical isoform): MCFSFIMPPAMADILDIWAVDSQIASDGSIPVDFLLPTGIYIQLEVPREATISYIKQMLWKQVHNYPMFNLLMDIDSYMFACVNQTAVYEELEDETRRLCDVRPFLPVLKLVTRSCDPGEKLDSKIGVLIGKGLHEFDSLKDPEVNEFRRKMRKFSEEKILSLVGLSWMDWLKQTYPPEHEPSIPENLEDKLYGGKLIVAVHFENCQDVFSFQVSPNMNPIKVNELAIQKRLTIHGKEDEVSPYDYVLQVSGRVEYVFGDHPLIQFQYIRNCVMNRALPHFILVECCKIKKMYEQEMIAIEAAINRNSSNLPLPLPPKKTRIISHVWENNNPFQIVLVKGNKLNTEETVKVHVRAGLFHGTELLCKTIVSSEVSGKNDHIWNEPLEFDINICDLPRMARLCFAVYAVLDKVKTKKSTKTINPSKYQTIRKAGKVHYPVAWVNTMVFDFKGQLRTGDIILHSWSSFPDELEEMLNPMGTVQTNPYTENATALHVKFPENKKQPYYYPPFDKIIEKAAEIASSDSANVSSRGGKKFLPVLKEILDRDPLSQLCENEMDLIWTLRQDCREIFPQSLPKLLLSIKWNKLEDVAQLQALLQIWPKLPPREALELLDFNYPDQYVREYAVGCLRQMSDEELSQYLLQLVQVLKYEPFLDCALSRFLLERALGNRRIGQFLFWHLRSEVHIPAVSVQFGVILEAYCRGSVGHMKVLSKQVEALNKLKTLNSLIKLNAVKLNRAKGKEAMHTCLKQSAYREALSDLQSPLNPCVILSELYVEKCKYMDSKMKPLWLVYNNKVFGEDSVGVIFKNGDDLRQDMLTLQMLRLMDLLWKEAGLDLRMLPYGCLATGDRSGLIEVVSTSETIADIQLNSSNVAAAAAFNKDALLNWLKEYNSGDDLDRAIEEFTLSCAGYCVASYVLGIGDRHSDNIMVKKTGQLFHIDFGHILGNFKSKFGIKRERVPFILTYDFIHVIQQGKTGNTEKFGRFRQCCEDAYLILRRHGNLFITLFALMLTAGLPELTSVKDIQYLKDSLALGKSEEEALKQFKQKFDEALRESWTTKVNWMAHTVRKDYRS

[3] = target: T3, Phosphatidylinositol 4,5-bisphosphate 3-kinase catalytic subunit alpha isoform (Homo sapiens, UniProt P42336); experiment: Inhibition of N-terminal myristoylated P110alpha (unknown origin)-mediated AKT phosphorylation at Ser473 expressed in rat Rat1 cells by ELISA; format: cell-based
T3 sequence (P42336 whole entry, canonical isoform): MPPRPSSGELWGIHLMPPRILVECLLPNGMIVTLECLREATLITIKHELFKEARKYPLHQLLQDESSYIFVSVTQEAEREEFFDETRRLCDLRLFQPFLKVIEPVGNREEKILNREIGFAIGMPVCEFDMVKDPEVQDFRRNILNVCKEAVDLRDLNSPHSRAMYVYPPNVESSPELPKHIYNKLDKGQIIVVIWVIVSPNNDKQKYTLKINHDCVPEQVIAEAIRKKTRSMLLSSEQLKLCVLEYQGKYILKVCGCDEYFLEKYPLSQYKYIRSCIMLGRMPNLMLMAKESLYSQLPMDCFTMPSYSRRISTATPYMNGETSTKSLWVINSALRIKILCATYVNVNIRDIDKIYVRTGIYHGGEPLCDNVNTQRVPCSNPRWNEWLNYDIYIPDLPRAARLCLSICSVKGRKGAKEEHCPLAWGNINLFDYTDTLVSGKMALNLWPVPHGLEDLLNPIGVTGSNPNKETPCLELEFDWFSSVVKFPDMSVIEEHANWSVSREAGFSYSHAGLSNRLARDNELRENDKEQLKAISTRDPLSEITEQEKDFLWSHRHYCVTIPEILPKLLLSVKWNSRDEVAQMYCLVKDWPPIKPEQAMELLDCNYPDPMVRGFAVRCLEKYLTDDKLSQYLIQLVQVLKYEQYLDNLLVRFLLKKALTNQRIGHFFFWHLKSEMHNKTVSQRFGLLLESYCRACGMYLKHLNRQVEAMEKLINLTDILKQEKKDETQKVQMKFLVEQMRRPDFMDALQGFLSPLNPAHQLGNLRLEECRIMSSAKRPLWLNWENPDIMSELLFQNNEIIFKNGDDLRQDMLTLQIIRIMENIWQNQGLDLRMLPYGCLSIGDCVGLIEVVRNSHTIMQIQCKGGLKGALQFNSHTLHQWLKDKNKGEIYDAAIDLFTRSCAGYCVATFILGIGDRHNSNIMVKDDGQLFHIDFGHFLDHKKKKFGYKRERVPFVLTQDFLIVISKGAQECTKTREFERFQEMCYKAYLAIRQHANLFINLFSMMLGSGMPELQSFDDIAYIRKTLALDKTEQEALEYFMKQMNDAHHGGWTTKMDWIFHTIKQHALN

[4] = Clearance in rat liver microsomes in presence of cofactor for glucuronyl transferases; format: ADME, Microsome; conditions: read-out: CLH
[5] = Plasma protein binding in Sprague-Dawley rat at 1 mg/kg, iv; format: ADME, organism-based; parameters: dose 1 mg/kg, route intravenous; conditions: read-out: PPB (converted)
[6] = Clearance in Sprague-Dawley rat at 1 mg/kg, iv; format: ADME, organism-based; parameters: dose 1 mg/kg, route intravenous; conditions: in vivo
[7] = Volume of distribution at steady state in Sprague-Dawley rat at 1 mg/kg, iv; format: ADME, organism-based; parameters: dose 1 mg/kg, route intravenous; conditions: in vivo, read-out: Vdss
[8] = Half life in Sprague-Dawley rat at 1 mg/kg, iv; format: ADME, organism-based; parameters: dose 1 mg/kg, route intravenous; conditions: in vivo
Cytochrome P450 3A4 = Cytochrome P450 3A4 (Homo sapiens, UniProt P08684); experiment: Inhibition of CYP3A4 (unknown origin); format: ADME
Sequence of Cytochrome P450 3A4 (P08684 whole entry, canonical isoform): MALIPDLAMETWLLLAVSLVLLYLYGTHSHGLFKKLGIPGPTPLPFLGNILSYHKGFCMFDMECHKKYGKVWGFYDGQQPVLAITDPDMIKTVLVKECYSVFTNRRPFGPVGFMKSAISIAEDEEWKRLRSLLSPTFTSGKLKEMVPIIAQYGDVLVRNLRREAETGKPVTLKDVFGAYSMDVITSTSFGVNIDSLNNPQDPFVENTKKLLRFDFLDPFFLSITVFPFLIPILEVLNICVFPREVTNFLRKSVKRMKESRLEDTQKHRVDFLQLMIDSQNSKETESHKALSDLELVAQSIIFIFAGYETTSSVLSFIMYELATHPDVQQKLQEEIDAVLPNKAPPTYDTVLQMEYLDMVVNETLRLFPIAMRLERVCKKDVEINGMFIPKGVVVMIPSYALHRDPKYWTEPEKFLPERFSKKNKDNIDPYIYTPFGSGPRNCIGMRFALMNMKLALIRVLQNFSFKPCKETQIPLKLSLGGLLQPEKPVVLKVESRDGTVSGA

[9] = target: Phosphatidylinositol 4,5-bisphosphate 3-kinase catalytic subunit gamma isoform (Homo sapiens, UniProt P48736); experiment: Inhibition of P110gamma (unknown origin) using PIP2:PS as substrate by TR-FRET assay
Sequence of Phosphatidylinositol 4,5-bisphosphate 3-kinase catalytic subunit gamma isoform (P48736 whole entry, canonical isoform): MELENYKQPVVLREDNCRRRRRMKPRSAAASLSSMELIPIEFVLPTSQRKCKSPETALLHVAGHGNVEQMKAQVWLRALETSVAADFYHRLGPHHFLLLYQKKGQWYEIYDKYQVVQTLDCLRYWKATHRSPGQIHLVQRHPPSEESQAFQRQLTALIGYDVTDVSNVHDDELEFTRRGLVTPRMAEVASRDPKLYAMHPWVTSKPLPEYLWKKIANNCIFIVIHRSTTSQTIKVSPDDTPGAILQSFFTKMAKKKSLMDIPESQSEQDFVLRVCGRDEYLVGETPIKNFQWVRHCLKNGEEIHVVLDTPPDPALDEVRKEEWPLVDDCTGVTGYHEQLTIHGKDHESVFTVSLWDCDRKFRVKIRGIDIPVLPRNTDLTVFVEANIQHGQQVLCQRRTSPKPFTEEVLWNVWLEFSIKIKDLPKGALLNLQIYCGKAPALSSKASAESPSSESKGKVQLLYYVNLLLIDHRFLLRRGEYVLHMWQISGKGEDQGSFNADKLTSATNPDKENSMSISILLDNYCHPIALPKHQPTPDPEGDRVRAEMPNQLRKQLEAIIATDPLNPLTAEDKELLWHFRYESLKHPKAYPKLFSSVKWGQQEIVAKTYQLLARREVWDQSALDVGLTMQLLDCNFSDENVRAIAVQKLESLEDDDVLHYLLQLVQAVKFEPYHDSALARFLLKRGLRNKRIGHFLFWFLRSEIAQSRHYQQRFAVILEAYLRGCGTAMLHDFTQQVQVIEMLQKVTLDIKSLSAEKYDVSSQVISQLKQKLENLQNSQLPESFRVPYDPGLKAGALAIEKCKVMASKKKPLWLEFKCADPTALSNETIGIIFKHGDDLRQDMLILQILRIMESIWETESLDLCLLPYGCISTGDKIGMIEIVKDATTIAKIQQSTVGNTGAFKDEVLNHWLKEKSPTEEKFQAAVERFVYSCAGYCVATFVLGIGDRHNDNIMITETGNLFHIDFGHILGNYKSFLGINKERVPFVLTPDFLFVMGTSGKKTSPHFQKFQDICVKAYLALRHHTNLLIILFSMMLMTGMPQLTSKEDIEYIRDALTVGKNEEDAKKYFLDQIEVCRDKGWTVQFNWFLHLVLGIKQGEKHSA

[10] = target: T1, Phosphatidylinositol 4,5-bisphosphate 3-kinase catalytic subunit delta isoform; experiment: Inhibition of P110delta (unknown origin) using PIP2:PS as substrate by TR-FRET assay
[11] = target: T2, Phosphatidylinositol 4,5-bisphosphate 3-kinase catalytic subunit beta isoform; experiment: Inhibition of P110beta (unknown origin) using L-a-phosphatidylinositol as substrate by luminescence assay
[12] = target: T3, Phosphatidylinositol 4,5-bisphosphate 3-kinase catalytic subunit alpha isoform; experiment: Inhibition of P110alpha (unknown origin) using L-a-phosphatidylinositol as substrate by luminescence assay
[13] = Clearance in rat liver microsomes; format: ADME, Microsome; conditions: read-out: CLH
[14] = target: Serine-protein kinase ATM (Homo sapiens, UniProt Q13315); experiment: Inhibition of ATM (unknown origin) phosphorylation at Ser1981 by cell-based assay
[15] = target: Serine/threonine-protein kinase ATR (Homo sapiens, UniProt Q13535); experiment: Inhibition of ATR (unknown origin)
[16] = target: DNA-dependent protein kinase catalytic subunit (Homo sapiens, UniProt P78527); experiment: Inhibition of DNA-PK (unknown origin)
[17] = target: Serine/threonine-protein kinase mTOR (Homo sapiens, UniProt P42345); experiment: Inhibition of mTOR (unknown origin)
[18] = target: Phosphatidylinositol 3-kinase catalytic subunit type 3 (Homo sapiens, UniProt Q8NEB9); experiment: Inhibition of VPS34 (unknown origin)
Sequence of Phosphatidylinositol 3-kinase catalytic subunit type 3 (Q8NEB9 whole entry): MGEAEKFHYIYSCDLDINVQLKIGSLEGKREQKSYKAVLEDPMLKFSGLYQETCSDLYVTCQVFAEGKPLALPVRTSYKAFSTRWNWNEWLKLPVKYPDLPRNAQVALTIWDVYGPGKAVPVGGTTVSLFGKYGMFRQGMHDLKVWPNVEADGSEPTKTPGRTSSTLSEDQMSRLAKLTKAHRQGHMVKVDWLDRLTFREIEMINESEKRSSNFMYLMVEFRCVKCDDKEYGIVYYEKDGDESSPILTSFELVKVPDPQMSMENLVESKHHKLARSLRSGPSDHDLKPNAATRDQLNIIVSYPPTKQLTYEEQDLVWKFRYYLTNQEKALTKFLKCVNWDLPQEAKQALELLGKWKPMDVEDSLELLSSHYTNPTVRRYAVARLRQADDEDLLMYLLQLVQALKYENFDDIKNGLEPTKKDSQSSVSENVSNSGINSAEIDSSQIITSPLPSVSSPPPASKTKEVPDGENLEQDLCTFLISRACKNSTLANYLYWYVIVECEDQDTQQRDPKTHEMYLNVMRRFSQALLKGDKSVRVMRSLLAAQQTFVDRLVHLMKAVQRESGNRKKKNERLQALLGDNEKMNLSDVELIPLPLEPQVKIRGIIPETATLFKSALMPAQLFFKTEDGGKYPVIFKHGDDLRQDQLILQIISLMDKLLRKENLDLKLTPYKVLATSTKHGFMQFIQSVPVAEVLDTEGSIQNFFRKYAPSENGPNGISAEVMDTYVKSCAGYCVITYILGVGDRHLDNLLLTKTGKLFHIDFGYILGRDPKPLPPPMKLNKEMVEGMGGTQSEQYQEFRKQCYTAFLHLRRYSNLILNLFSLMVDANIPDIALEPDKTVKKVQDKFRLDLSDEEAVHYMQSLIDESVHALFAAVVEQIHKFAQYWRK

[19] = Clearance in dog at 0.1 mg/kg, iv and 0.6 mg/kg, po; format: ADME, organism-based, Canis lupus familiaris; conditions: in vivo
[20] = Cmax in dog at 0.6 mg/kg, po; format: ADME, organism-based, Canis lupus familiaris; parameters: dose 0.6 mg/kg, route oral; conditions: in vivo
[21] = Cmax in rat at 15 mg/kg, po; format: ADME, organism-based; parameters: dose 15 mg/kg, route oral; conditions: in vivo
[22] = Oral bioavailability in dog at 0.6 mg/kg; format: ADME, organism-based, Canis lupus familiaris; conditions: in vivo
[23] = Clearance in rat at 3.4 mg/kg, iv and 15 mg/kg, po; format: ADME, organism-based; conditions: in vivo
[24] = Clearance in mouse at 1 mg/kg, iv and 3 mg/kg, po; format: ADME, organism-based; conditions: in vivo
[25] = Cmax in mouse at 3 mg/kg, po; format: ADME, organism-based; parameters: dose 3 mg/kg, route oral; conditions: in vivo
[26] = Oral bioavailability in mouse at 3 mg/kg; format: ADME, organism-based; conditions: in vivo

Structure (SMILES)	IC50 [1]	IC50 [2]	IC50 [3]	microsomal CLint [4]	IC50 (Cytochrome P450 3A4)	IC50 [9]	IC50 [10]	IC50 [11]	IC50 [12]	microsomal CLint [13]	also measured
Cc1nc(NC(=O)N2CCC[C@H]2C(N)=O)sc1-c1ccc(-n2cccn2)cc1	0.62 µM	2.1 µM	0.13 µM	–	–	–	–	–	–	–	–
Cc1nc(NC(=O)N2CCC[C@H]2C(N)=O)sc1-c1ccnc(C(C)(C)C)c1	0.72 µM	8 µM	–	77 µL/min/mg	> 10 µM	0.43 µM	0.33 µM	–	–	–	clearance [6]: 39 mL/min/kg; Vd [7]: 1.4 L/kg; half-life [8]: 3.4 h
Cc1nc(NC(=O)N2CCCC2)sc1-c1ccnc(C(C)(C)C)c1	0.77 µM	> 10 µM	2.5 µM	186 µL/min/mg	–	0.93 µM	0.59 µM	4.9 µM	0.62 µM	–	–
Cc1nc(NC(=O)N2CCC[C@@H]2C(N)=O)sc1-c1ccnc(C(C)(C)C)c1	–	–	–	36 µL/min/mg	–	> 10 µM	3.3 µM	8.2 µM	–	–	–
Cc1nc(NC(=O)N2CCC[C@H]2C(N)=O)sc1-c1ccnc(C2(C#N)CC2)c1	> 10 µM	> 10 µM	0.64 µM	–	> 10 µM	1.1 µM	2 µM	–	–	41 µL/min/mg	–
CC(C)(c1cc(-c2cnc(NC(=O)N3CCC[C@H]3C(N)=O)s2)ccn1)C(F)(F)F	2.9 µM	2.4 µM	0.14 µM	–	> 10 µM	0.83 µM	1.1 µM	–	0.0095 µM	27 µL/min/mg	–
CC(C)(c1cc(-c2sc(NC(=O)N3CCC[C@H]3C(N)=O)nc2Cl)ccn1)C(F)(F)F	4.9 µM	> 10 µM	0.34 µM	–	–	1.4 µM	0.43 µM	–	–	17 µL/min/mg	–
Cc1nc(NC(=O)N2CCC[C@H]2C(N)=O)sc1-c1ccnc(C(C)(C)C(F)(F)F)c1 [ALPELISIB]	–	–	–	–	–	–	–	–	–	–	IC50 [14]: > 10 µM; IC50 [15]: > 9.1 µM; IC50 [16]: > 9.1 µM; IC50 [17]: > 9.1 µM; IC50 [18]: > 9.1 µM; clearance [19]: 8 mL/min/kg; Cmax [20]: 1070 nM; Cmax [21]: 190 nM; bioavailability [22]: 140%; clearance [23]: 10 mL/min/kg; clearance [24]: 8 mL/min/kg; Cmax [25]: 520 nM; bioavailability [26]: 106%; fraction unbound [5]: 0.057; clearance [6]: 10 mL/min/kg; Vd [7]: 1.9 L/kg; half-life [8]: 2.9 h

The next lines start with results.

IC50 [1]	IC50 [2]	IC50 [3]	microsomal CLint [4]	IC50 (Cytochrome P450 3A4)	IC50 [9]	IC50 [10]	IC50 [11]	IC50 [12]	microsomal CLint [13]	Structure (SMILES)	also measured
–	–	–	62 µL/min/mg	> 10 µM	–	–	–	–	–	Cc1nc(NC(=O)N2CCC[C@H]2C(N)=O)sc1-c1ccnc(C(C)(C)C)n1	fraction unbound [5]: 0.06; clearance [6]: 21 mL/min/kg; Vd [7]: 1.2 L/kg; half-life [8]: 1.2 h
5.8 µM	> 10 µM	> 10 µM	104 µL/min/mg	–	4.6 µM	4.2 µM	> 9.1 µM	2.7 µM	–	CNC(=O)[C@@H]1CCCN1C(=O)Nc1nc(C)c(-c2ccnc(C(C)(C)C)c2)s1	–
1.6 µM	6.4 µM	0.23 µM	–	–	0.32 µM	0.29 µM	1.2 µM	0.019 µM	44 µL/min/mg	Cc1nc(NC(=O)N2CC[C@H]2C(N)=O)sc1-c1ccnc(C(C)(C)C)n1	–
1.3 µM	5.9 µM	0.1 µM	–	> 10 µM	1.4 µM	0.96 µM	4 µM	0.016 µM	36 µL/min/mg	Cc1nc(NC(=O)N2CCC[C@H]2C(N)=O)sc1-c1ccnc(C(C)C)n1	–
> 10 µM	7.3 µM	0.44 µM	–	> 10 µM	0.61 µM	0.69 µM	1.8 µM	0.02 µM	53 µL/min/mg	Cc1nc(NC(=O)N2CCC[C@H]2C(N)=O)sc1-c1ccnc(C2CCC2)n1	–
> 10 µM	> 10 µM	4.6 µM	–	–	–	–	> 9.1 µM	0.32 µM	–	Cc1nc(NC(=O)N2CCC[C@H]2C(N)=O)sc1-c1cc(C(C)C)ncn1	–
2.5 µM	4.4 µM	0.17 µM	–	–	0.41 µM	0.34 µM	–	–	96 µL/min/mg	CCN(CC)c1nccc(-c2sc(NC(=O)N3CCC[C@H]3C(N)=O)nc2C)n1	–
3 µM	9.6 µM	–	–	> 10 µM	0.69 µM	0.81 µM	3.1 µM	–	47 µL/min/mg	Cc1nc(NC(=O)N2CCC[C@H]2C(N)=O)sc1-c1ccnc(C2(C)CC2)n1	fraction unbound [5]: 0.029; clearance [6]: 8 mL/min/kg; Vd [7]: 0.9 L/kg; half-life [8]: 1.7 h

From ChEMBL document CHEMBL2396607 (Bioorg Med Chem Lett, 2013)
